Laboratory results from paper PMC10447463, “Data-mining unveils structure–property–activity correlation of viral infectivity enhancing self-assembling peptides” (Nature Communications, 2023).
Like-named read-outs stand apart in the source and are kept apart here.

Columns and labels:
[1] = Zeta-potential measurement; type: physicochemical; conditions: for Zeta-pot. / mV: zeta potential of peptide, Fig S15 source data
Procedure, shortened: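 Charge on peptide aggregates was assessed by electrophoretic mobility in 1 mM KCl, converted per Smoluchowski. Prior aggregation: 1 mg/mL, pH 7.4 PBS, 1 d, RT.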

[2] = type: physicochemical
Procedure, shortened: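 Fibrils (1 mg/mL solution) were mixed with 50 µM ThT in PBS for 15 min at RT, and fluorescence was read at λex 440/λem 488 nm against a PBS blank, as a triplicate mean ± SD. Zeta potential came from electrophoretic mobility (Smoluchowski) after 1 d aggregation at 1 mg/mL in PBS pH 7.4, diluted into 1 mM KCl.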

[3] = ThT fluorescence relative to blank (42.1851851851852 a.u.)
[4] = relative to blank 42.1851851851852 a.u.
[5] = category derived from the zeta potential
[6] = ThT fluorescence relative to blank, blank = 42.1851851851852

| Substance | Zeta category ( +1 = if > 4 mV;-1 = if < -4 mV; 0 = -4mV to 4 mV) [1] | Zeta category ( +1 = if > 4 mV;-1 = if < -4 mV; 0 = -4mV to 4 mV) ([1]; category from zeta potential) | Zeta Pot. / mV ([1]; mean, Std Zeta in next column) [mV] | Zeta Pot. / mV ([1]; mean, Std in separate column) [mV] | Zeta-pot. / mV [1] [mV] | Tht rel to blank (42.1851851851852) [2, 3] | Tht category (> 1.5 to blank = +) ([2]; category 1/0) | Tht rel to blank (42.1851851851852) [2, 4] | Zeta Pot. / mV [1] [mV] | Tht rel to blank (42.1851851851852) [2, 6] | also measured |
| --- | --- | --- | --- | --- | --- | --- | --- | --- | --- | --- | --- |
| CKAKAQANMWQ [BL8] | 0 (0 = -4mV to 4 mV) | 0 (0 = -4mV to 4 mV) | 0.7373 | 0.7373 | 0.7373 | 1.86 | 0 (ThT-inactive (N-Fold <2)) | 1.86 | – | – | – |
| KIKIQINMWQ [JG1] | 1 (+1 = if > 4 mV) | 1 (+1 = if > 4 mV) | 14.87 | 14.87 | 14.87 | 5.939 | 1 (ThT. Cat is 1, if Rel. ThT >2) | 5.939 | – | – | Zeta category ( +1 = if > 4 mV;-1 = if < -4 mV; 0 = -4mV to 4 mV) ([1]; FigS26): 1 (+1 = if > 4 mV); Tht category (> 1.5 to blank = +) ([2]; FigS26): 1 (Tht category (> 1.5 to blank = +)) |
| RGDKIKIQI | – | – | – | – | – | – | – | – | – | – | Zeta-Pot. ([1]; zeta potential of peptide assemblies): -0.899; Zeta-Potential / mV ([1]; zeta-potential of peptide, source data of Figure 2C): 2.829 mV; Zeta-Potential / mV ([1]; zeta-potential of the peptide assemblies, mean, Figure 3A source data): -0.9 mV; Tht category (> 2 to blank = +) ([2]; Fig S10 panel D): 1 (ThT. Cat is 1, if Rel. ThT >2); Tht category (> 2 to blank = +) ([2]; FigS12 panel A): 1 (ThT. Cat is 1, if Rel. ThT >2); ThT Cat, ([2]; FigS12 panel B): 1 (ThT. Cat is 1, if Rel. ThT >2); ThT Cat, ([2]; ThT category, 1 if Rel. ThT >2): 1 (ThT. Cat is 1, if Rel. ThT >2); ThT Cat. ([2]; ThT fluorescence category, 1 if Rel. ThT >2): 1 (ThT. Cat is 1, if Rel. ThT >2); ThT Cat. / ThT-Fluorescence (categorical) ([2]; ThT-active if fluorescence at least twice the control): 1 (ThT. Cat is 1, if Rel. ThT >2) |
| CKIKIQINM [MG2] | 1 (+1 = if > 4 mV) | 1 (+1 = if > 4 mV) | 16.83 | 16.83 | 16.83 | 2.648 | 1 (ThT. Cat is 1, if Rel. ThT >2) | 2.648 | – | – | – |
| HHHHKIKIKIKIYYYY [TM6] | 1 (+1 = if > 4 mV) | – | 13.2 | – | 13.2 | 9.935 | 1 (ThT. Cat is 1, if Rel. ThT >2) | – | 13.2 | 9.935 | Zeta category ( +1 = if > 4 mV;-1 = if < -4 mV; 0 = -4mV to 4 mV) [1, 5]: 1 (+1 = if > 4 mV) |
| KAKAKAQA [TG15] | -1 (-1 = if < -4 mV) | -1 (-1 = if < -4 mV) | -9.01 | – | -9.01 | 1.151 | 0 (ThT-inactive (N-Fold <2)) | – | -9.01 | 1.151 | – |
| CKFKFQFNMW [KB14] | 1 (+1 = if > 4 mV) | – | 18.4 | 18.4 | 18.4 | – | 1 (ThT. Cat is 1, if Rel. ThT >2) | 6.314 | – | – | – |
| QCKFKFQFNMWQ [CK7] | 1 (+1 = if > 4 mV) | 1 (+1 = if > 4 mV) | 21.07 | 21.07 | 21.07 | 1.854 | 0 (ThT-inactive (N-Fold <2)) | 1.854 | – | – | – |
| QCKIKIQINMWQ [EF-C opt] | 1 (+1 = if > 4 mV) | 1 (+1 = if > 4 mV) | 11.73 | 11.73 | 11.73 | 9.054 | 1 (ThT. Cat is 1, if Rel. ThT >2) | 9.054 | – | – | – |
| MKIKIQINM [TM41] | 1 (+1 = if > 4 mV) | – | 9.13 | – | 9.13 | – | 0 (ThT-inactive (N-Fold <2)) | 1.327 | – | – | – |
| KWKWQW [KB3] | 1 (+1 = if > 4 mV) | – | 7.55 | – | 7.55 | – | 0 (ThT-inactive (N-Fold <2)) | 1.518 | – | – | – |
| CRFRFQF [CN10] | 0 (0 = -4mV to 4 mV) | – | -2.097 | – | -2.097 | – | 1 (ThT. Cat is 1, if Rel. ThT >2) | 3.455 | – | – | – |
| CKIKQIINMWQ [MG5a / CK17] | 1 (+1 = if > 4 mV) | 1 (+1 = if > 4 mV) | 13.4 | 13.4 | 13.4 | 48.46 | 1 (ThT. Cat is 1, if Rel. ThT >2) | 48.46 | 13.4 | 48.46 | – |
| QCKAKAQA [CK24] | 0 (0 = -4mV to 4 mV) | 0 (0 = -4mV to 4 mV) | 0.674 | 0.674 | 0.674 | 1.319 | 0 (ThT-inactive (N-Fold <2)) | 1.319 | – | – | – |
| QCKFKQFF [CK12] | 1 (+1 = if > 4 mV) | – | 4.94 | 4.94 | 4.94 | 2.349 | 1 (ThT. Cat is 1, if Rel. ThT >2) | 2.349 | 4.94 | 2.349 | Zeta category ( +1 = if > 4 mV;-1 = if < -4 mV; 0 = -4mV to 4 mV) [1, 5]: 1 (+1 = if > 4 mV) |
| CKAKAQANM [BL9] | -1 (-1 = if < -4 mV) | -1 (-1 = if < -4 mV) | -7.773 | -7.773 | -7.773 | 1.249 | 0 (ThT-inactive (N-Fold <2)) | 1.249 | – | – | – |
| RGDSKIKIQIC [TM113 / RC11] | – | 1 (+1 = if > 4 mV) | 15.1 | – | 15.1 | 13.8 | – | – | – | – | – |
| KIKQIINMWQ [JG2] | 1 (+1 = if > 4 mV) | 1 (+1 = if > 4 mV) | 15.37 | 15.37 | 15.37 | 4.945 | 1 (ThT. Cat is 1, if Rel. ThT >2) | – | 15.37 | 4.945 | Zeta category ( +1 = if > 4 mV;-1 = if < -4 mV; 0 = -4mV to 4 mV) ([1]; FigS26): 1 (+1 = if > 4 mV); Tht category (> 1.5 to blank = +) ([2]; FigS26): 1 (Tht category (> 1.5 to blank = +)) |
| CKFKQFFNM [CK14] | 1 (+1 = if > 4 mV) | – | 15.2 | 15.2 | 15.2 | 45.97 | 1 (ThT. Cat is 1, if Rel. ThT >2) | 45.97 | 15.2 | 45.97 | Zeta category ( +1 = if > 4 mV;-1 = if < -4 mV; 0 = -4mV to 4 mV) [1, 5]: 1 (+1 = if > 4 mV) |
